This assay deals with xylose isomerase enzyme (PXYLA). Kind of assay: Inhibition of PXYLA activity in strain CD861 using xylitol (Ex. 8E). The assay is classed as biochemical, Piromyces sp. E2. As to the method: Strain CD861 was grown in xylose media containing varying concentrations of xylitol, a known xylose isomerase inhibitor.

For the compound `OC[C@@H](O)[C@H](O)[C@@H](O)CO` [xylitol], the “change of Km for the xylose isomerase enzyme” value (xylitol increased from 0 to 0.25 mM) is given as “doubled” and the “change of Km for the xylose isomerase enzyme” value (xylitol increased to 0.50 mM) is on record as “doubled again”.

Source of the values: US9410158B2, “Genetically modified yeast species, and fermentation processes using genetically modified yeast” (Cargill Incorporated, priority 2003, dated 2016).
